Tests used:
[1] = tested on: Smn protein; assay: Smn protein assay in tissues of adult C/C-allele SMA mice; format: in vivo, mouse; conditions: brain, spinal cord, muscle, 10 mg/kg orally twice a day for 10 days
Procedure: This Smn protein assay compares tissues from test compound treated mice with those from DMSO vehicle treated mice to determine the increase in levels of Smn protein produced from the human SMN2 gene.
(§1) Protocol. The tissue samples in Safe-Lock tubes are weighed and the volume of RIPA buffer containing the protease inhibitor cocktail is added based on the weight to volume ratios for each type of tissue: Brain (50 mg/mL), Muscle (50 mg/mL) and Spinal Cord (25 mg/mL).
Tissues are homogenized using the TissueLyzer by bead milling. 5 mm stainless steel beads are added to the sample and shaken vigorously for 5 minutes at 30 Hz in the TissueLyzer. The samples are then centrifuged for 20 minutes at 14,000×g in a microcentrifuge and the homogenates transferred to the PCR plate. The homogenates are diluted in RIPA buffer to approximately 1 mg/mL for HTRF and approximately 0.5 mg/mL for total protein measurement using the BCA protein assay. For the SMN HTRF assay, 35 μL of the tissue homogenate is transferred to a 384-well plate containing 5 μL of the antibody solution (1:100 dilution of each of the anti-SMNd2 and anti-SMN Kryptate in reconstitution buffer). To provide a control signal, three (3) wells in the plate contain only RIPA Lysis Buffer and, thus, serve as Blank control wells. The plate is centrifuged for 1 minute to bring the solution to the bottom of the wells and then incubated overnight at room temperature. Fluorescence for each well of the plate at 665 nm and 620 nm is measured on an EnVision multilabel plate reader (Perkin-Elmer). The total protein in the tissue homogenate is measured using the BCA assay according to the manufacturer's protocol.
The normalized fluorescence signal is calculated for each sample, Blank and vehicle control well by dividing the signal at 665 nm by the signal at 620 nm. Normalizing the signal accounts for possible fluorescence quenching due to the matrix effect of the tissue homogenate. The ΔF value (a measurement of Smn protein abundance) for each tissue sample well is calculated by subtracting the normalized average fluorescence for the Blank control wells from the normalized fluorescence for each tissue sample well and then dividing this difference by the normalized average fluorescence for the Blank control wells. The ΔF value for each tissue sample well is divided by the total protein quantity (determined using the BCA assay) for that tissue sample. The change in Smn protein abundance for each tissue sample relative to the vehicle control is calculated as the percent difference in the ΔF value of the tissue sample in the presence of the test compound and the averaged ΔF value of the vehicle control signal divided by the averaged ΔF value of the vehicle control signal. […]

[2] = tested on: SMA Δ7 homozygous knockout mice; assay: Survival of neonatal Δ7 SMA mice; format: in vivo, mouse; conditions: IP QD from PND 3, then orally BID until study end, compared to vehicle
Procedure: The change in the number of surviving mice over time is used to determine whether treatment with a test compound improves survival.
Protocol. SMA Δ7 homozygous knockout mice are dosed intraperitoneally (IP) with test compound or vehicle (100% DMSO) once per day (QD) from postnatal day (PND) 3 until the dose regimen is switched to an oral dose twice per day (BID) in 0.5% hydroxypropylmethyl cellulose (HPMC) with 0.1% Tween-80 at a dose 3.16-fold higher than the dose used for IP. The number of surviving mice in each group is recorded every day and plotted as a percent of total number of mice. Tissues of SMA Δ7 and age-matched heterozygous mice are collected for the measurement of Smn protein levels and processed as detailed in Example 10. The total protein normalized Smn protein levels measured in the tissues are plotted as a percent of those in the age-matched heterozygous mice tissues, with the heterozygous levels represented as 100 percent. The level of Smn protein in the test compound treated mice tissue relative to that in heterozygous mice tissue is indicated as a percent value above each bar in the graph.

[3] = tested on: Smn protein; assay: Smn protein levels in tissues of Δ7 SMA mice of the survival study; format: in vivo, mouse; conditions: neonatal Δ7 SMA mice; brain and muscle; treated until P47-55 (Compound 35), until P68 (Compound 626)
Procedure: as §1
Tissues are homogenized using the TissueLyzer by bead milling. 5 mm stainless steel beads are added to the sample and shaken vigorously for 5 minutes at 30 Hz in the TissueLyzer. The samples are then centrifuged for 20 minutes at 14,000×g in a microcentrifuge and the homogenates transferred to the PCR plate. […] Fluorescence for each well of the plate at 665 nm and 620 nm is measured on an EnVision multilabel plate reader (Perkin-Elmer). The total protein in the tissue homogenate is measured using the BCA assay according to the manufacturer's protocol.
The normalized fluorescence signal is calculated for each sample, Blank and vehicle control well by dividing the signal at 665 nm by the signal at 620 nm. Normalizing the signal accounts for possible fluorescence quenching due to the matrix effect of the tissue homogenate. […] The ΔF value for each tissue sample well is divided by the total protein quantity (determined using the BCA assay) for that tissue sample. […]
Protocol. […] The number of surviving mice in each group is recorded every day and plotted as a percent of total number of mice. […]

[4] = tested on: Smn protein; assay: Smn protein assay in cultured cells (SMN HTRF); format: cell-based, human; conditions: 48 hours; for Smn protein expression: SMA Type 1 patient fibroblast cells, SMN HTRF assay; for maximum fold (Fold) increase of Smn protein: SMA patient fibroblast cells, 7-point concentration data, fold increase relative to vehicle control (SMN HTRF)
How it was run: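 Smn in SMA fibroblast lysates, measured by anti-SMN HTRF after 48 h compound exposure; EC1.5x from fold change over vehicle.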

Row | Structure (SMILES) | Smn protein levels in target tissues compared with heterozygous mice [1] | total protein normalized Smn level relative to the vehicle group [1] | survival [2] | Smn protein expression in tissues relative to vehicle treated and age-matched heterozygous mice [3] | EC1.5x (concentration giving 1.5-fold Smn protein increase) ([4]; SMA Type 1 patient fibroblast cells (GM03813), 7-point concentration curve, SMN HTRF, concentration producing 1.5 times Smn protein vs DMSO vehicle control, read-out: EC1.5x for Smn protein expression) [nM] | Smn protein expression [4] | maximum fold (Fold) increase of Smn protein [4]
1 | CCN1CCN(c2ccc3cc(-c4cn5cc(C)nc(C)c5n4)c(=O)oc3c2)C[C@@H]1C [Cpd 626, 3-(6,8-dimethylimidazo[1,2-a]pyrazin-2-yl)-7-[(3S)-4-ethyl-3-methylpiperazin-1-yl]-2H-chromen-2-one] | above those observed in the corresponding tissues of the heterozygous mice | increased | improved compared to vehicle treated mice | increased Smn protein expression | < 300 | dose dependent increase in Smn protein expression | **** (fold increase between >1.5 and ≤1.65)
2 | CC(C)NCCc1ccc2cc(-c3nc4c(Cl)cccc4s3)c(=O)oc2c1 [Cpd 35, 3-(4-chloro-1,3-benzothiazol-2-yl)-7-[2-(propan-2-ylamino)ethyl]-2H-chromen-2-one] | above those observed in the corresponding tissues of the heterozygous mice | increased | improved compared to vehicle treated mice | increased Smn protein expression | – | dose dependent increase in Smn protein expression | * (maximum fold increase of ≤1.2)
